A short description of series [1]: Peroxide neutralization rate profile in Clear Care® lens case with platinum element. Format: physicochemical.
From the text: All of the peroxide neutralization data described herein was obtained with a hydrogen peroxide lens case provided in a contact lens care product package sold as Clear Care® by CibaVision. The Clear Care® product packages with the included lens case were purchased in the United States in 2009-10. Each of the hydrogen peroxide neutralization profiles and rate constants (as well as calculated the half-lives) stated herein and in the claims were obtained with a Clear Care® lens case.
The line plots shown in FIG. 5B is determined from the peroxide neutralization data of FIG. 5A over the initial 60 minutes, i.e. at time of 0, 5 min, 15 min, 30 min and 60 min. […] The pseudo first-order rate constant is determined from the slope of the line plots.
The peroxide neutralization rate profiles of select disinfecting solutions were determined as follows. […] Aliquots of the solution are removed at the stated time points and the concentration of hydrogen peroxide is determined by known analytical methods.
The aliquots of solution are titrated with 0.1N potassium permanganate in the presence of an acidic aqueous solution. […] The sample is placed in the system and analyzed using a built-in hydrogen peroxide determination method. […] Once an endpoint is determined the instrument calculates the hydrogen peroxide concentration of the sample. […]
Series [2] can be described thus: Osmolality after peroxide neutralization. To be noted: disinfecting solution with 3 wt. % urea hydrogen peroxide. Format: physicochemical.

For the molecule `NCCS(=O)(=O)O` [taurine], the results for the “effect on the rate of peroxide neutralization” value in series [1] (0.1 wt. % or 1000 ppm) and in series [1] (100 ppm) were “much greater reduction in the rate of peroxide neutralization” and “very small effect on the rate of peroxide neutralization”, respectively.
Consider `NC(N)=O.OO` [urea hydrogen peroxide], for which, in series [2], the “osmolality of the solution following neutralization of the peroxide” value is “about 600 mOsmol/kg”.

Values taken from patent publication US8932646B2, “Peroxide contact lens care solution” (Bausch & Lomb Incorporated, priority 2010, dated 2015).
